From ChEMBL document CHEMBL1201862, “PubChem BioAssay data set” (2004)
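Test compounds were applied to cells in 96-well plates for 48 hours at 5 doses. At the GI50, growth is halved.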 Activity calls are given as the source filed them. Cut-off read from the data, not from the text of the source: active = GI50 up to about 1.1 µM and inactive = higher.

Assays:
Experiment in all cases: DTP human tumour cell line panel, 48 h
Malme-3M = tested on: Malme-3M
SW-620 = tested on: SW-620
NCI/ADR-RES = tested on: NCI/ADR-RES
LOX IMVI = tested on: LOX IMVI
HT-29 = tested on: HT-29
HCT-116 = tested on: HCT-116
SR = tested on: SR
SK-MEL-2 = tested on: SK-MEL-2
A498 = tested on: A498
TK-10 = tested on: TK-10
OVCAR-5 = tested on: OVCAR-5
MDA-MB-435 = tested on: MDA-MB-435
KM12 = tested on: KM12
786-0 = tested on: 786-0
SK-MEL-5 = tested on: SK-MEL-5
SK-OV-3 = tested on: SK-OV-3
MOLT-4 = tested on: MOLT-4
OVCAR-3 = tested on: OVCAR-3
ACHN = tested on: ACHN
HOP-62 = tested on: HOP-62
SNB-19 = tested on: SNB-19
HCC 2998 = tested on: HCC 2998
SF-268 = tested on: SF-268
MDA-MB-231 = tested on: MDA-MB-231
SN12C = tested on: SN12C
M14 = tested on: M14
RXF 393 = tested on: RXF 393
CAKI-1 = tested on: CAKI-1
SF-539 = tested on: SF-539
UO-31 = tested on: UO-31
OVCAR-8 = tested on: OVCAR-8
UACC-62 = tested on: UACC-62
RPMI-8226 = tested on: RPMI-8226
A549 = tested on: A549
SK-MEL-28 = tested on: SK-MEL-28
IGROV-1 = tested on: IGROV-1
HL-60 = tested on: HL-60
DU-145 = tested on: DU-145
NCI-H522 = tested on: NCI-H522
OVCAR-4 = tested on: OVCAR-4
SNB-75 = tested on: SNB-75
UACC-257 = tested on: UACC-257
Hs-578T = tested on: Hs-578T
HCT-15 = tested on: HCT-15
CCRF-CEM = tested on: CCRF-CEM
HOP-92 = tested on: HOP-92
MCF7 = tested on: MCF7
U-251 = tested on: U-251
COLO 205 = tested on: COLO 205
PC-3 = tested on: PC-3
SF-295 = tested on: SF-295
BT-549 = tested on: BT-549
NCI-H23 = tested on: NCI-H23
MDA-N = tested on: MDA-N
NCI-H226 = tested on: NCI-H226
K562 = tested on: K562
EKVX = tested on: EKVX

Nc1ccc(-c2nc3ccccc3s2)cc1Cl
GI50 (Malme-3M): > 100 µM (inactive)
GI50 (SW-620): > 100 µM (inactive)
GI50 (NCI/ADR-RES): > 100 µM (inactive)
GI50 (LOX IMVI): 46.8 µM (inactive)
GI50 (HT-29): > 100 µM (inactive)
GI50 (HCT-116): > 100 µM (inactive)
GI50 (SR): > 100 µM (inactive)
GI50 (SK-MEL-2): > 100 µM (inactive)
GI50 (A498): 223 nM (active)
GI50 (TK-10): < 10 nM (active)
GI50 (OVCAR-5): 25.9 nM (active)
GI50 (MDA-MB-435): > 100 µM (inactive)
GI50 (KM12): 40.3 µM (inactive)
GI50 (786-0): 74 µM (inactive)
GI50 (SK-MEL-5): > 87.3 µM (inactive)
GI50 (SK-OV-3): > 73.8 µM (inactive)
GI50 (MOLT-4): 16.3 µM (inactive)
GI50 (OVCAR-3): < 10 nM (active)
GI50 (ACHN): > 100 µM (inactive)
GI50 (HOP-62): 18.8 µM (inactive)
GI50 (SNB-19): > 70.8 µM (inactive)
GI50 (HCC 2998): > 64.3 µM (inactive)
GI50 (SF-268): 67 µM (inactive)
GI50 (MDA-MB-231): > 92.9 µM (inactive)
GI50 (SN12C): > 100 µM (inactive)
GI50 (M14): > 100 µM (inactive)
GI50 (RXF 393): > 39.8 µM (inactive)
GI50 (CAKI-1): > 93.3 µM (inactive)
GI50 (SF-539): 77.6 µM (inactive)
GI50 (UO-31): 23.3 µM (inactive)
GI50 (OVCAR-8): > 100 µM (inactive)
GI50 (UACC-62): > 100 µM (inactive)
GI50 (RPMI-8226): 36.1 µM (inactive)
GI50 (A549): > 87.1 µM (inactive)
GI50 (SK-MEL-28): > 100 µM (inactive)
GI50 (IGROV-1): < 10 nM (active)
GI50 (HL-60): > 92.3 µM (inactive)
GI50 (DU-145): > 100 µM (inactive)
GI50 (NCI-H522): 98.6 µM (inactive)
GI50 (OVCAR-4): > 100 µM (inactive)
GI50 (SNB-75): 16.6 µM (inactive)
GI50 (UACC-257): > 100 µM (inactive)
GI50 (Hs-578T): 56 µM (inactive)
GI50 (HCT-15): > 48.8 µM
GI50 (CCRF-CEM): 10.2 µM (inactive)
GI50 (HOP-92): > 44.5 µM (inactive)
GI50 (MCF7): < 10 nM (active)
GI50 (U-251): 58.2 µM (inactive)
GI50 (COLO 205): > 56.2 µM (inactive)
GI50 (PC-3): > 73.6 µM (inactive)
GI50 (SF-295): 53.5 µM (inactive)
GI50 (BT-549): > 66.4 µM (inactive)
GI50 (NCI-H23): 69.3 µM (inactive)
GI50 (MDA-N): > 100 µM (inactive)
GI50 (NCI-H226): 571 nM (active)
GI50 (K562): 66.7 µM (inactive)
GI50 (EKVX): 25.2 µM (inactive)
